# According to PubChem BioAssay (NCI):
#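 Exposure lasted 48 hours, with cells grown in 96-well plates and compounds tested at five concentrations. Definition used: TGI = concentration required for complete inhibition of growth.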
# What was measured:
# Assay in all cases: NCI anticancer screen, dose series, 48 h
# 786-0 renal = test system: 786-0 renal
# A498 renal = test system: A498 renal
# A549 NSCLC = test system: A549 NSCLC
# ACHN renal = test system: ACHN renal
# BT-549 breast = test system: BT-549 breast
# CAKI-1 renal = test system: CAKI-1 renal
# CCRF-CEM leukemia = test system: CCRF-CEM leukemia
# COLO 205 colon = test system: COLO 205 colon
# DU-145 prostate = test system: DU-145 prostate
# EKVX NSCLC = test system: EKVX NSCLC
# HCC-2998 colon = test system: HCC-2998 colon
# HCT-116 colon = test system: HCT-116 colon
# HCT-15 colon = test system: HCT-15 colon
# HL-60(TB) leukemia = test system: HL-60(TB) leukemia
# HOP-62 NSCLC = test system: HOP-62 NSCLC
# HOP-92 NSCLC = test system: HOP-92 NSCLC
# HS 578T breast = test system: HS 578T breast
# HT29 colon = test system: HT29 colon
# IGROV1 ovarian = test system: IGROV1 ovarian
# K-562 leukemia = test system: K-562 leukemia
# KM12 colon = test system: KM12 colon
# LOX IMVI melanoma = test system: LOX IMVI melanoma
# M14 melanoma = test system: M14 melanoma
# MALME-3M melanoma = test system: MALME-3M melanoma
# MCF7 breast = test system: MCF7 breast
# MDA-MB-231 breast = test system: MDA-MB-231 breast
# MDA-MB-435 = test system: MDA-MB-435
# MDA-N = test system: MDA-N
# MOLT-4 leukemia = test system: MOLT-4 leukemia
# NCI-H23 lung = test system: NCI-H23 lung
# NCI-H460 lung = test system: NCI-H460 lung
# NCI-H522 lung = test system: NCI-H522 lung
# NCI/ADR-RES ovarian = test system: NCI/ADR-RES ovarian
# OVCAR-3 ovarian = test system: OVCAR-3 ovarian
# OVCAR-4 ovarian = test system: OVCAR-4 ovarian
# OVCAR-5 ovarian = test system: OVCAR-5 ovarian
# OVCAR-8 ovarian = test system: OVCAR-8 ovarian
# PC-3 prostate = test system: PC-3 prostate
# RPMI-8226 leukemia = test system: RPMI-8226 leukemia
# RXF 393 renal = test system: RXF 393 renal
# SF-268 CNS = test system: SF-268 CNS
# SF-295 CNS = test system: SF-295 CNS
# SF-539 CNS = test system: SF-539 CNS
# SK-MEL-2 melanoma = test system: SK-MEL-2 melanoma
# SK-MEL-28 melanoma = test system: SK-MEL-28 melanoma
# SK-MEL-5 melanoma = test system: SK-MEL-5 melanoma
# SK-OV-3 ovarian = test system: SK-OV-3 ovarian
# SN12C renal = test system: SN12C renal
# SNB-19 CNS = test system: SNB-19 CNS
# SNB-75 CNS = test system: SNB-75 CNS
# SR leukemia = test system: SR leukemia
# SW-620 colon = test system: SW-620 colon
# T-47D breast = test system: T-47D breast
# TK-10 renal = test system: TK-10 renal
# U251 CNS = test system: U251 CNS
# UACC-257 melanoma = test system: UACC-257 melanoma
# UACC-62 melanoma = test system: UACC-62 melanoma
# UO-31 renal = test system: UO-31 renal
# NCI-H226 lung = test system: NCI-H226 lung
smiles,measurement,setting,value
CC1=C(Cc2ccccc2)C(Cc2ccccc2)=C(C)S1=O,TGI,786-0 renal,71 µM
same,TGI,A498 renal,63.7 µM
same,TGI,A549 NSCLC,> 100 µM
same,TGI,ACHN renal,> 100 µM
same,TGI,BT-549 breast,92.4 µM
same,TGI,CAKI-1 renal,> 100 µM
same,TGI,CCRF-CEM leukemia,49.9 µM
same,TGI,COLO 205 colon,43.1 µM
same,TGI,DU-145 prostate,> 100 µM
same,TGI,EKVX NSCLC,46.9 µM
same,TGI,HCC-2998 colon,42.4 µM
same,TGI,HCT-116 colon,74.7 µM
same,TGI,HCT-15 colon,> 100 µM
same,TGI,HL-60(TB) leukemia,34.6 µM
same,TGI,HOP-62 NSCLC,> 100 µM
same,TGI,HOP-92 NSCLC,> 100 µM
same,TGI,HS 578T breast,> 100 µM
same,TGI,HT29 colon,39.4 µM
same,TGI,IGROV1 ovarian,> 100 µM
same,TGI,K-562 leukemia,> 100 µM
same,TGI,KM12 colon,36.5 µM
same,TGI,LOX IMVI melanoma,50.9 µM
same,TGI,M14 melanoma,46.3 µM
same,TGI,MALME-3M melanoma,> 100 µM
same,TGI,MCF7 breast,60 µM
same,TGI,MDA-MB-231 breast,52.3 µM
same,TGI,MDA-MB-435,35.6 µM
same,TGI,MDA-N,71.2 µM
same,TGI,MOLT-4 leukemia,41.5 µM
same,TGI,NCI-H23 lung,95.7 µM
same,TGI,NCI-H460 lung,99.1 µM
same,TGI,NCI-H522 lung,78.8 µM
same,TGI,NCI/ADR-RES ovarian,51.7 µM
same,TGI,OVCAR-3 ovarian,> 100 µM
same,TGI,OVCAR-4 ovarian,> 100 µM
same,TGI,OVCAR-5 ovarian,73.2 µM
same,TGI,OVCAR-8 ovarian,> 100 µM
same,TGI,PC-3 prostate,54.1 µM
same,TGI,RPMI-8226 leukemia,54.4 µM
same,TGI,RXF 393 renal,55.1 µM
same,TGI,SF-268 CNS,> 100 µM
same,TGI,SF-295 CNS,> 100 µM
same,TGI,SF-539 CNS,> 100 µM
same,TGI,SK-MEL-2 melanoma,35.1 µM
same,TGI,SK-MEL-28 melanoma,> 100 µM
same,TGI,SK-MEL-5 melanoma,30.1 µM
same,TGI,SK-OV-3 ovarian,> 100 µM
same,TGI,SN12C renal,84.1 µM
same,TGI,SNB-19 CNS,> 100 µM
same,TGI,SNB-75 CNS,54.6 µM
same,TGI,SR leukemia,53.2 µM
same,TGI,SW-620 colon,> 100 µM
same,TGI,T-47D breast,59.1 µM
same,TGI,TK-10 renal,76.2 µM
same,TGI,U251 CNS,> 100 µM
same,TGI,UACC-257 melanoma,48.5 µM
same,TGI,UACC-62 melanoma,34.3 µM
same,TGI,UO-31 renal,> 100 µM
COc1ccc2cc1Oc1ccc(cc1)CC1c3cc(OC)c(cc3CCN1C)Oc1c(OC)c(OC)cc3c1C(C2)N(C)CC3 (stereo not drawn),TGI,786-0 renal,30.4 µM
same,TGI,A498 renal,23.9 µM
same,TGI,A549 NSCLC,53.4 µM
same,TGI,ACHN renal,19 µM
same,TGI,BT-549 breast,20.9 µM
same,TGI,CAKI-1 renal,29.4 µM
same,TGI,CCRF-CEM leukemia,42.4 µM
same,TGI,COLO 205 colon,11.8 µM
same,TGI,DU-145 prostate,27.9 µM
same,TGI,EKVX NSCLC,31.7 µM
same,TGI,HCC-2998 colon,19.1 µM
same,TGI,HCT-116 colon,> 75 µM
same,TGI,HCT-15 colon,18.3 µM
same,TGI,HL-60(TB) leukemia,16.3 µM
same,TGI,HOP-92 NSCLC,34.1 µM
same,TGI,HS 578T breast,25.6 µM
same,TGI,HT29 colon,18 µM
same,TGI,IGROV1 ovarian,64.2 µM
same,TGI,K-562 leukemia,28.7 µM
same,TGI,KM12 colon,26 µM
same,TGI,LOX IMVI melanoma,28 µM
same,TGI,M14 melanoma,15 µM
same,TGI,MALME-3M melanoma,23.1 µM
same,TGI,MCF7 breast,36.7 µM
same,TGI,MDA-MB-231 breast,21.5 µM
same,TGI,MDA-MB-435,26.2 µM
same,TGI,MDA-N,20.3 µM
same,TGI,MOLT-4 leukemia,32.4 µM
same,TGI,NCI-H226 lung,51.7 µM
same,TGI,NCI-H23 lung,35.6 µM
same,TGI,NCI-H460 lung,19.8 µM
same,TGI,NCI-H522 lung,20.6 µM
same,TGI,NCI/ADR-RES ovarian,29.9 µM
same,TGI,OVCAR-4 ovarian,24.4 µM
same,TGI,OVCAR-5 ovarian,> 75 µM
same,TGI,OVCAR-8 ovarian,23.2 µM
same,TGI,PC-3 prostate,40.7 µM
same,TGI,SF-268 CNS,33.6 µM
same,TGI,SF-295 CNS,21.1 µM
same,TGI,SF-539 CNS,19.5 µM
same,TGI,SK-MEL-2 melanoma,25.6 µM
same,TGI,SK-MEL-28 melanoma,34.9 µM
same,TGI,SK-MEL-5 melanoma,15.9 µM
same,TGI,SK-OV-3 ovarian,> 75 µM
same,TGI,SN12C renal,18.3 µM
same,TGI,SNB-19 CNS,27.1 µM
same,TGI,SNB-75 CNS,18.2 µM
same,TGI,SR leukemia,4.33 µM
same,TGI,SW-620 colon,> 75 µM
same,TGI,T-47D breast,20.5 µM
same,TGI,TK-10 renal,20.6 µM
same,TGI,U251 CNS,24.6 µM
same,TGI,UACC-257 melanoma,16.1 µM
same,TGI,UACC-62 melanoma,23.3 µM
same,TGI,UO-31 renal,18.8 µM
COc1ccc(Nc2nc3cc(C(F)(F)F)ccc3n3cccc23)cc1OC,TGI,786-0 renal,24.7 µM
same,TGI,A498 renal,32.6 µM
same,TGI,A549 NSCLC,50.8 µM
same,TGI,ACHN renal,74.3 µM
same,TGI,BT-549 breast,56.1 µM
same,TGI,CAKI-1 renal,> 100 µM
same,TGI,CCRF-CEM leukemia,> 100 µM
same,TGI,DU-145 prostate,52.6 µM
same,TGI,EKVX NSCLC,58.5 µM
same,TGI,HCC-2998 colon,27.3 µM
same,TGI,HCT-116 colon,27.4 µM
same,TGI,HCT-15 colon,56.1 µM
same,TGI,HL-60(TB) leukemia,67 µM
same,TGI,HOP-62 NSCLC,48.7 µM
same,TGI,HOP-92 NSCLC,47.5 µM
same,TGI,HS 578T breast,> 100 µM
same,TGI,HT29 colon,24.1 µM
same,TGI,IGROV1 ovarian,> 100 µM
same,TGI,K-562 leukemia,52.6 µM
same,TGI,KM12 colon,34 µM
same,TGI,LOX IMVI melanoma,15.8 µM
same,TGI,M14 melanoma,31.3 µM
same,TGI,MALME-3M melanoma,54.4 µM
same,TGI,MCF7 breast,51.5 µM
same,TGI,MDA-MB-231 breast,36.5 µM
same,TGI,MDA-MB-435,36.3 µM
same,TGI,MDA-N,29.3 µM
same,TGI,MOLT-4 leukemia,37.8 µM
same,TGI,NCI-H23 lung,43.2 µM
same,TGI,NCI-H460 lung,28.7 µM
same,TGI,NCI-H522 lung,41.5 µM
same,TGI,NCI/ADR-RES ovarian,50.1 µM
same,TGI,OVCAR-3 ovarian,54 µM
same,TGI,OVCAR-5 ovarian,58 µM
same,TGI,OVCAR-8 ovarian,87.8 µM
same,TGI,PC-3 prostate,26.8 µM
same,TGI,RPMI-8226 leukemia,55.1 µM
same,TGI,RXF 393 renal,29 µM
same,TGI,SF-268 CNS,> 100 µM
same,TGI,SF-295 CNS,30.1 µM
same,TGI,SF-539 CNS,34 µM
same,TGI,SK-MEL-2 melanoma,30.9 µM
same,TGI,SK-MEL-28 melanoma,> 100 µM
same,TGI,SK-MEL-5 melanoma,27.6 µM
same,TGI,SK-OV-3 ovarian,92.1 µM
same,TGI,SNB-19 CNS,60.9 µM
same,TGI,SNB-75 CNS,39.5 µM
same,TGI,SR leukemia,34.9 µM
same,TGI,SW-620 colon,> 100 µM
same,TGI,T-47D breast,34.9 µM
same,TGI,TK-10 renal,49 µM
same,TGI,U251 CNS,28.6 µM
same,TGI,UACC-257 melanoma,34.8 µM
same,TGI,UACC-62 melanoma,28.9 µM
same,TGI,UO-31 renal,63.4 µM
